Measurements: article PMC4460250, “Systems Pharmacology Dissecting Holistic Medicine for Treatment of Complex Diseases: An Example Using Cardiocerebrovascular Diseases Treated by TCM” (Evidence-based Complementary and Alternative Medicine : eCAM, 2015)

Legend:
[1] = in vivo
[2] = in vivo; cited from earlier work

| SMILES | Class(High: HIA value ≥0.7; Low: HIA value < 0.7) [1] | HIA(Human Intestinal Absorption) [2] |
| --- | --- | --- |
| C[C@@H](C(=O)O)c1ccc(-c2ccccc2)c(F)c1 [Flurbiprofen(R)] | High (key: High: HIA value ≥0.7; Low: HIA value < 0.7) | 0.95 |
| C[C@H](C(=O)O)c1ccc(-c2ccccc2)c(F)c1 [Flurbiprofen(S)] | High (key: High: HIA value ≥0.7; Low: HIA value < 0.7) | 0.95 |
| NCC1(CC(=O)O)CCCCC1 [Gabapentin] | Low (key: High: HIA value ≥0.7; Low: HIA value < 0.7) | 0.59 |
| COc1ccc(CCN(C)CCC[C@](C#N)(c2cc(OC)c(OC)c(OC)c2)C(C)C)cc1OC [Gallopamil(R)] | High (key: High: HIA value ≥0.7; Low: HIA value < 0.7) | 0.97 |
| COc1ccc(CCN(C)CCC[C@@](C#N)(c2cc(OC)c(OC)c(OC)c2)C(C)C)cc1OC [Gallopamil(S)] | High (key: High: HIA value ≥0.7; Low: HIA value < 0.7) | 0.97 |
| COc1c(N2CCN[C@H](C)C2)c(F)cc2c(=O)c(C(=O)O)cn(C3CC3)c12 [Gatifloxacin(R)] | High (key: High: HIA value ≥0.7; Low: HIA value < 0.7) | 0.96 |
| COc1c(N2CCN[C@@H](C)C2)c(F)cc2c(=O)c(C(=O)O)cn(C3CC3)c12 [Gatifloxacin(S)] | High (key: High: HIA value ≥0.7; Low: HIA value < 0.7) | 0.96 |
| CN[C@@H]1[C@@H](O)[C@@H](O[C@@H]2[C@@H](O)[C@H](O[C@H]3O[C@H]([C@@H](C)N)CC[C@H]3N)[C@@H](N)C[C@H]2N)OC[C@]1(C)O [GentamicinC2(R)] | Low (key: High: HIA value ≥0.7; Low: HIA value < 0.7) | 0.01 |
| NCC(=O)O [Glycine] | High (key: High: HIA value ≥0.7; Low: HIA value < 0.7) | 1 |
| N=C(N)NC[C@@H]1COC2(CCCCC2)O1 [Guanadrel(R)] | High (key: High: HIA value ≥0.7; Low: HIA value < 0.7) | 0.8 |
| N=C(N)NC[C@H]1COC2(CCCCC2)O1 [Guanadrel(S)] | High (key: High: HIA value ≥0.7; Low: HIA value < 0.7) | 0.8 |
| N=C(N)NC[C@@H]1COc2ccccc2O1 [Guanoxan(R)] | Low (key: High: HIA value ≥0.7; Low: HIA value < 0.7) | 0.5 |
| N=C(N)NC[C@H]1COc2ccccc2O1 [Guanoxan(S)] | Low (key: High: HIA value ≥0.7; Low: HIA value < 0.7) | 0.5 |
| CN1C(=O)NC(=O)C(C)(C2=CCCCC2)C1=O (centres unmarked) [Hexobarbital] | High (key: High: HIA value ≥0.7; Low: HIA value < 0.7) | 0.95 |
| C[C@]12CCC(=O)C=C1CC[C@@H]1[C@@H]2[C@@H](O)C[C@@]2(C)[C@H]1CC[C@]2(O)C(=O)CO [Hydrocortisone] | High (key: High: HIA value ≥0.7; Low: HIA value < 0.7) | 0.91 |
| CCN(CCO)CCC[C@@H](C)Nc1ccnc2cc(Cl)ccc12 [Hydroxychloroquine(R)] | High (key: High: HIA value ≥0.7; Low: HIA value < 0.7) | 0.9 |
| CCN(CCO)CCC[C@H](C)Nc1ccnc2cc(Cl)ccc12 [Hydroxychloroquine(S)] | High (key: High: HIA value ≥0.7; Low: HIA value < 0.7) | 0.9 |
| CCCCCCCN(CC)CCC[C@@H](O)c1ccc(NS(C)(=O)=O)cc1 [Ibutilide(R)] | High (key: High: HIA value ≥0.7; Low: HIA value < 0.7) | 0.82 |
| CCCCCCCN(CC)CCC[C@H](O)c1ccc(NS(C)(=O)=O)cc1 [Ibutilide(S)] | High (key: High: HIA value ≥0.7; Low: HIA value < 0.7) | 0.82 |
| CC[C@@H](C(=O)O)c1ccc(N2Cc3ccccc3C2=O)cc1 [Indobufen(R)] | High (key: High: HIA value ≥0.7; Low: HIA value < 0.7) | 1 |

| SMILES | Class(High: HIA value ≥0.7; Low: HIA value < 0.7) [1] | HIA(Human Intestinal Absorption) [2] |
| --- | --- | --- |
| CC[C@H](C(=O)O)c1ccc(N2Cc3ccccc3C2=O)cc1 [Indobufen(S)] | High (key: High: HIA value ≥0.7; Low: HIA value < 0.7) | 1 |
| CC(C)NC[C@H](O)c1ccc(O)c(O)c1 [Isoproterenol(R)] | High (key: High: HIA value ≥0.7; Low: HIA value < 0.7) | 0.85 |
| CC(C)NC[C@@H](O)c1ccc(O)c(O)c1 [Isoproterenol(S)] | High (key: High: HIA value ≥0.7; Low: HIA value < 0.7) | 0.85 |
| O=[N+]([O-])O[C@H]1CO[C@H]2[C@@H]1OC[C@H]2O [Isosorbide-2-mononitrate] | High (key: High: HIA value ≥0.7; Low: HIA value < 0.7) | 0.9 |
| O=[N+]([O-])O[C@H]1CO[C@H]2[C@@H]1OC[C@H]2O[N+](=O)[O-] [Isosorbide_dinitrate] | High (key: High: HIA value ≥0.7; Low: HIA value < 0.7) | 1 |
| COC(=O)C1=C(C)NC(C)=C(C(=O)OC(C)C)[C@@H]1c1cccc2nonc12 [Isradipine(R)] | High (key: High: HIA value ≥0.7; Low: HIA value < 0.7) | 0.92 |
| COC(=O)C1=C(C)NC(C)=C(C(=O)OC(C)C)[C@H]1c1cccc2nonc12 [Isradipine(S)] | High (key: High: HIA value ≥0.7; Low: HIA value < 0.7) | 0.92 |
| CCC(C)n1ncn(-c2ccc(N3CCN(c4ccc(OCC5COC(Cn6cncn6)(c6ccc(Cl)cc6Cl)O5)cc4)CC3)cc2)c1=O [Itraconazole(R)] | High (key: High: HIA value ≥0.7; Low: HIA value < 0.7) | 0.8 |
| CC[C@H](C)[C@H]1O[C@]2(CC[C@@H]1C)C[C@@H]1C[C@@H](C/C=C(\C)[C@@H](O[C@H]3C[C@H](OC)[C@@H](O[C@H]4C[C@H](OC)[C@@H](O)[C@H](C)O4)[C@H](C)O3)[C@@H](C)/C=C/C=C3\CO[C@@H]4[C@H](O)C(C)=C[C@@H](C(=O)O1)[C@]34O)O2 [Ivermectin] | Low (key: High: HIA value ≥0.7; Low: HIA value < 0.7) | 0.6 |
| NC[C@H]1O[C@H](O[C@H]2[C@H](O)[C@@H](O[C@H]3O[C@H](CO)[C@@H](O)[C@H](N)[C@H]3O)[C@H](N)C[C@@H]2N)[C@H](O)[C@@H](O)[C@@H]1O [Kanamycin] | Low (key: High: HIA value ≥0.7; Low: HIA value < 0.7) | 0.01 |
| CC1=CC(=O)N2CC(=O)N(C)c3ccc(Cl)cc3C2(c2ccccc2)O1 (centres unmarked) [Ketazolam] | High (key: High: HIA value ≥0.7; Low: HIA value < 0.7) | 1 |
| O=C(c1ccccc1)c1ccc2n1CC[C@H]2C(=O)O [Ketorolac(R)] | High (key: High: HIA value ≥0.7; Low: HIA value < 0.7) | 0.95 |
| O=C(c1ccccc1)c1ccc2n1CC[C@@H]2C(=O)O [Ketorolac(S)] | High (key: High: HIA value ≥0.7; Low: HIA value < 0.7) | 0.95 |
| CC[C@@H](C(N)=O)N1CCCC1=O [Levetiracetam(S)] | High (key: High: HIA value ≥0.7; Low: HIA value < 0.7) | 1 |
| CCn1cc(C(=O)O)c(=O)c2cc(F)c(N3CCN[C@H](C)C3)c(F)c21 [Lomefloxacin(R)] | High (key: High: HIA value ≥0.7; Low: HIA value < 0.7) | 0.99 |
| CCn1cc(C(=O)O)c(=O)c2cc(F)c(N3CCN[C@@H](C)C3)c(F)c21 [Lomefloxacin(S)] | High (key: High: HIA value ≥0.7; Low: HIA value < 0.7) | 0.99 |
| N[C@@H](C(=O)N[C@@H]1C(=O)N2C(C(=O)O)=C(Cl)CC[C@H]12)c1ccccc1 [Loracarbef] | High (key: High: HIA value ≥0.7; Low: HIA value < 0.7) | 1 |
| O=C1Nc2ccc(Cl)cc2C(c2ccccc2Cl)=N[C@@H]1O [Lorazepam(R)] | High (key: High: HIA value ≥0.7; Low: HIA value < 0.7) | 0.95 |
| O=C1Nc2ccc(Cl)cc2C(c2ccccc2Cl)=N[C@H]1O [Lorazepam(S)] | High (key: High: HIA value ≥0.7; Low: HIA value < 0.7) | 0.95 |
| CN1C(=O)[C@@H](O)N=C(c2ccccc2Cl)c2cc(Cl)ccc21 [Lormetazepam(R)] | High (key: High: HIA value ≥0.7; Low: HIA value < 0.7) | 1 |
